Where a SMILES comes first, the peptide text is derived from it. [ ]: non-standard residue; d: D form. Ac6c = NC1(C(=O)O)CCCCC1; Api = NC1(C(=O)O)CCNCC1; Aib = CC(C)(N)C(=O)O
Key:
[1] = test system: Escherichia coli, ATCC 25922; conditions: for Peptide minimum inhibitory concentration, E. coli: MIC after 4 h, median of 3-7 tests, corrected for actual peptide concentration
[2] = test system: Staphylococcus aureus, ATCC 25723; conditions: for Peptide minimum inhibitory concentration, S. aureus: MIC after 4 h, median of 3-7 tests, corrected for actual peptide concentration
[3] = test system: Normal murine macrophages; conditions: 10 μM
in vitro = conditions: BALB/c, mouse, normal (non-infected) primary murine peritoneal macrophages, Normal Macrophage Survival Rate
trypsin = trypsin (Sus scrofa, UniProt P00761); assay: Resistance to trypsin, E. coli MIC assay after trypsin incubation; conditions: trypsin 20 min at 37° C., then MIC assay with E. coli
[4] = test system: B. abortus infected BALB/c mice; conditions: mouse, in vivo
B. abortus strain 2308 = test system: B. abortus strain 2308; design: species or system BALB/c mice; conditions: mouse, in vivo; for % Bacterial Reduction: iv
[5] = Circular dichroism (CD) in SDS micelles, percent helicity; type: physicochemical
[6] = test system: Murine macrophages infected with virulent B. abortus, strain 2308; type: cell-based, BALB/c mice
Solubility in water = conditions: without any organic modifier present

Sequence of trypsin (P00761 9-231): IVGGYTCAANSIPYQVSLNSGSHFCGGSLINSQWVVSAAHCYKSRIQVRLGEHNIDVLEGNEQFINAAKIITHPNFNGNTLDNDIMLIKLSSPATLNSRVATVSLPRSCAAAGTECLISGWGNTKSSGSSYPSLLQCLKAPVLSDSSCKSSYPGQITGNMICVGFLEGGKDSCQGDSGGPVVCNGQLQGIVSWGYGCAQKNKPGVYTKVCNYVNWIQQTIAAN

Compound	Peptide minimum inhibitory concentration, E. coli [1]	Peptide minimum inhibitory concentration, S. aureus [2]	viability at 1 h, 0.1 µM (in vitro)	viability at 1 h, 1 µM (in vitro)	viability at 1 h, 10 µM (in vitro)	viability at 1 h, 50 µM (in vitro)	Effect of incubation with trypsin on antibacterial activity (trypsin)	Stress or death of infected mice after treatment [4]	other results
CC(C)(NC(=O)C(C)(C)NC(=O)[C@H](CCCCN)NC(=O)[C@H](CCCCN)NC(=O)C(C)(C)NC(=O)C(C)(C)NC(=O)[C@H](CCCCN)NC(=O)C(C)(C)NC(=O)C(C)(C)NC(=O)[C@H](CCCCN)NC(=O)[C@@H](N)CCCCN)C(N)=O [Ai-11, H—LysLysAibAibLysAibAibLysLysAibAib—NH2] (H-KK[Aib][Aib]K[Aib][Aib]KK[Aib][Aib]-NH2)	55 µM	>220 µM	88%	89%	81%	56.6%	did not decrease antibacterial activity	–	Effect of peptide treatment on normal macrophages (in words) [3]: small effect
NCCCC[C@H](NC(=O)[C@H](CCCCN)NC(=O)C1(NC(=O)C2(NC(=O)[C@H](CCCCN)NC(=O)C3(NC(=O)C4(NC(=O)[C@H](CCCCN)NC(=O)[C@@H](N)CCCCN)CCCCC4)CCCCC3)CCCCC2)CCCCC1)C(=O)NC1(C(N)=O)CCCCC1 [Ch-10, H—LysLysChChLysChChLysLysCh—NH2] (H-KK[Ac6c][Ac6c]K[Ac6c][Ac6c]KK[Ac6c]-NH2)	5.7 µM	2.8 µM	–	–	–	–	did not decrease antibacterial activity	died immediately after treatment	Survival of infected mice after treatment [4]: lived
CC(C)(NC(=O)C(C)(C)NC(=O)[C@H](CCCCN)NC(=O)[C@H](CCCCN)NC(=O)C(C)(C)NC(=O)C(C)(C)NC(=O)[C@H](CCCCN)NC(=O)C(C)(C)NC(=O)C(C)(C)NC(=O)[C@H](CCCCN)NC(=O)[C@H](CCCCN)NC(=O)C(C)(C)NC(=O)C(C)(C)NC(=O)[C@@H](N)CCCCN)C(N)=O [Ai-14, H—LysAibAibLysLysAibAibLysAibAibLysLysAibAib—NH2] (H-K[Aib][Aib]KK[Aib][Aib]K[Aib][Aib]KK[Aib][Aib]-NH2)	5.5 µM	11 µM	91%	88%	88%	57%	did not decrease antibacterial activity	–	–
CC(=O)NC(C)(C)C(=O)NC(C)(C)C(=O)NC1(C(=O)N[C@@H](CCCCN)C(=O)NC(C)(C)C(=O)NC(C)(C)C(=O)NC2(C(=O)N[C@@H](CCCCN)C(=O)NC(C)(C)C(=O)NC(C)(C)C(N)=O)CCNCC2)CCNCC1 [Pi-10-ac, Ac—AibAibApiLysAibAibApiLysAibAib—NH2] (Ac-[Aib][Aib][Api]K[Aib][Aib][Api]K[Aib][Aib]-NH2)	–	–	92%	89%	88%	49%	–	died immediately after treatment	–
H-KAAKKAAKAAKKAA-NH2 [Al-14, H—LysAlaAlaLysLysAlaAlaLysAlaAlaLysLysAlaAla—NH2, reference compound]	>178 µM	>178 µM	–	–	–	–	–	–	% Bacterial Reduction (B. abortus strain 2308): −6%
CC(C)(N)C(=O)NC(C)(C)C(=O)NC1(C(=O)N[C@@H](CCCCN)C(=O)NC(C)(C)C(=O)NC(C)(C)C(=O)NC2(C(=O)N[C@@H](CCCCN)C(=O)NC(C)(C)C(=O)NC(C)(C)C(N)=O)CCNCC2)CCNCC1 [Pi-10, H—AibAibApiLysAibAibApiLysAibAib—NH2] (H-[Aib][Aib][Api]K[Aib][Aib][Api]K[Aib][Aib]-NH2)	–	–	95%	89%	90%	68%	did not decrease antibacterial activity	–	% Helicity (% α helix) ([5]; CD, 25 mM SDS micelles, 100-200 μM peptide): 43%; Reduction of bacterial load compared to controls (in words) (B. abortus strain 2308): significantly reduced bacterial load; % Bacterial Reduction (B. abortus strain 2308): 90%; Infected Macrophage Survival Rate [6]: 55.0 ± 1.00; Antibacterial activity against E. coli (in words) [1]: good antibacterial activity; Antibacterial activity against S. aureus (in words) [2]: moderate activity; Solubility in water (Solubility in water): readily soluble in water
CC(C)(NC(=O)[C@H](CCCCN)NC(=O)C(C)(C)NC(=O)C(C)(C)NC(=O)C1(N)CCNCC1)C(=O)NC(C)(C)C(=O)N[C@@H](CCCCN)C(=O)NC(C)(C)C(=O)NC(C)(C)C(=O)NC1(C(N)=O)CCNCC1 [Ipi-10, H—ApiAibAibLysAibAibLysAibAibApi—NH2] (H-[Api][Aib][Aib]K[Aib][Aib]K[Aib][Aib][Api]-NH2)	–	–	–	–	–	–	did not decrease antibacterial activity	did not die, but showed physiological signs of stress	222/206 intensity ratio (CD) ([5]; in the presence of SDS micelles): 0.32; % Bacterial Reduction (B. abortus strain 2308): 55%; Solubility in water (Solubility in water): readily soluble in water
NCCCC[C@H](NC(=O)[C@H](CCCCN)NC(=O)C1(NC(=O)C2(NC(=O)[C@H](CCCCN)NC(=O)C3(NC(=O)C4(NC(=O)[C@H](CCCCN)NC(=O)[C@@H](N)CCCCN)CCCCC4)CCCCC3)CCCCC2)CCCCC1)C(=O)NC1(C(=O)NC2(C(N)=O)CCCCC2)CCCCC1 [Ch-11, H—LysLysChChLysChChLysLysChCh—NH2] (H-KK[Ac6c][Ac6c]K[Ac6c][Ac6c]KK[Ac6c][Ac6c]-NH2)	5.2 µM	2.6 µM	–	–	–	–	–	–	–
NCCCC[C@H](NC(=O)[C@H](CCCCN)NC(=O)C1(NC(=O)C2(NC(=O)[C@H](CCCCN)NC(=O)C3(NC(=O)C4(NC(=O)[C@H](CCCCN)NC(=O)[C@H](CCCCN)NC(=O)C5(NC(=O)C6(NC(=O)[C@@H](N)CCCCN)CCCCC6)CCCCC5)CCCCC4)CCCCC3)CCCCC2)CCCCC1)C(=O)NC1(C(N)=O)CCCCC1 [Ch-13, H—LysChChLysLysChChLysChChLysLysCh—NH2] (H-K[Ac6c][Ac6c]KK[Ac6c][Ac6c]K[Ac6c][Ac6c]KK[Ac6c]-NH2)	6.5 µM	2.2 µM	–	–	–	–	did not decrease antibacterial activity	died immediately after treatment	Survival of infected mice after treatment [4]: lived
H-GIGKFLHSAKKFGKAFVGEIMNS-OH [magainin 2, reference compound]	–	–	–	–	–	–	destroyed antibacterial activity	–	–
H-KWKVFKKIEKMGRNIRNGIVKAGPAIAVLGEAKAL-NH2 [cecropin B, reference compound]	–	–	–	–	–	–	destroyed antibacterial activity	–	–
CC(=O)N[C@@H](CCCCN)C(=O)N[C@@H](CCCCN)C(=O)NC(C)(C)C(=O)NC(C)(C)C(=O)N[C@@H](CCCCN)C(=O)NC(C)(C)C(=O)NC(C)(C)C(=O)N[C@@H](CCCCN)C(=O)N[C@@H](CCCCN)C(=O)NC(C)(C)C(=O)NC(C)(C)C(N)=O [Ai-11-ac, Ac—LysLysAibAibLysAibAibLysLysAibAib—NH2] (Ac-KK[Aib][Aib]K[Aib][Aib]KK[Aib][Aib]-NH2)	6.6 µM	212 µM	92%	82%	86%	58.5%	did not decrease antibacterial activity	–	Effect of peptide treatment on normal macrophages (in words) [3]: small effect
CC(=O)NC1(C(=O)NC(C)(C)C(=O)NC(C)(C)C(=O)N[C@@H](CCCCN)C(=O)NC(C)(C)C(=O)NC(C)(C)C(=O)N[C@@H](CCCCN)C(=O)NC(C)(C)C(=O)NC(C)(C)C(=O)NC2(C(N)=O)CCNCC2)CCNCC1 [Ipi-10-ac, Ac—ApiAibAibLysAibAibLysAibAibApi—NH2] (Ac-[Api][Aib][Aib]K[Aib][Aib]K[Aib][Aib][Api]-NH2)	–	–	–	–	–	–	–	did not die, but showed physiological signs of stress	–

Source: US6566334B1, “Short amphipathic peptides with activity against bacteria and intracellular pathogens” (priority 1997, dated 2003)
